Laboratory results from PubChem BioAssay AID330 (DTP/NCI, 2004).
Inconclusive results and toxic doses are left out. Peptide text beside a SMILES is read from it. * marks the point of attachment. Cbz = O=C(OCc1ccccc1)*

System: P388 leukemia ip, CD2F1 mice, survival T/C
Test: NCI In Vivo Anticancer Drug Screen. Data for tumor model P388 Leukemia (intraperitoneal) in CD2F1 (CDF1) mice
Conditions: endpoint: median survival time, higher = longer survival
In short: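 Mice carrying the transplanted tumor received test compound or vehicle. Survival was recorded in each group, and the value is the treated-group measurement divided by that of the vehicle-treated control group.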

[1] = dose: 6.25 mg/kg/injection, schedule: Q01DX009 (ip), vehicle: water
[2] = dose: 12.5 mg/kg/injection, schedule: Q01DX009 (ip), vehicle: water
[3] = dose: 50.0 mg/kg/injection, schedule: Q04DX003 (ip), vehicle: saline with Tween-80
[4] = dose: 60.0 mg/kg/injection, schedule: Q01DX005 (ip), vehicle: Klucel (hydroxypropylcellulose) (HPC)
[5] = dose: 200.0 mg/kg/injection, schedule: Q01DX005 (ip), vehicle: Klucel (hydroxypropylcellulose) (HPC)
[6] = dose: 50.0 mg/kg/injection, schedule: Q01DX009 (ip), vehicle: saline with Tween-80
[7] = dose: 100.0 mg/kg/injection, schedule: Q01DX009 (ip), vehicle: saline with Tween-80

## COc1cccc2c1C(=O)c1c(O)c3c(c(O)c1C2=O)CC(OC1CC(N)C(O)C(C)O1)(C(C)=O)CC3OC1CC(N)C(O)C(C)O1 (stereo unspecified)
dose: 1.56 mg/kg/injection, schedule: Q01DX009 (ip), vehicle: water
  T/C: 107 % of control
dose: 3.13 mg/kg/injection, schedule: Q01DX009 (ip), vehicle: water
  T/C: 103 % of control
[1]
  T/C: 108 % of control
[2]
  T/C: 122 % of control

## CN(c1ccccc1)c1nnnn1-c1ccccc1
[3]
  T/C: 95 % of control
dose: 100.0 mg/kg/injection, schedule: Q04DX003 (ip), vehicle: saline with Tween-80
  T/C: 104 % of control
dose: 200.0 mg/kg/injection, schedule: Q04DX003 (ip), vehicle: saline with Tween-80
  T/C: 111 % of control

## COc1ccc(OC)c(Cc2cnc3nc(N)nc(N)c3c2C)c1
dose: 10.0 mg/kg/injection, schedule: Q01DX005 (ip), vehicle: dextrose
  T/C: 113 % of control
dose: 10.0 mg/kg/injection, schedule: Q01DX005 (ip), vehicle: water
  T/C: 112 % of control
dose: 25.0 mg/kg/injection, schedule: Q04DX003 (ip), vehicle: dextrose
  T/C: 115 % of control
dose: 40.0 mg/kg/injection, schedule: Q01DX005 (ip), vehicle: dextrose
  T/C: 170 % of control
dose: 100.0 mg/kg/injection, schedule: Q04DX003 (ip), vehicle: dextrose
  T/C: 166 % of control

## OCCN1CCN(CC/C=C2/c3ccccc3Sc3ccc(Cl)cc32)CC1
dose: 0.39 mg/kg/injection, schedule: Q01DX005 (ip), vehicle: saline
  T/C: 100 % of control
dose: 0.78 mg/kg/injection, schedule: Q01DX005 (ip), vehicle: saline
  T/C: 100 % of control
dose: 1.56 mg/kg/injection, schedule: Q01DX005 (ip), vehicle: saline
  T/C: 105 % of control
dose: 6.25 mg/kg/injection, schedule: Q01DX005 (ip), vehicle: saline
  T/C: 123 % of control
dose: 12.5 mg/kg/injection, schedule: Q04DX003 (ip), vehicle: saline
  T/C: 118 % of control
dose: 25.0 mg/kg/injection, schedule: Q04DX003 (ip), vehicle: saline
  T/C: 122 % of control
dose: 33.0 mg/kg/injection, schedule: Q04DX003 (ip), vehicle: saline
  T/C: 90 % of control
dose: 50.0 mg/kg/injection, schedule: Q04DX003 (ip), vehicle: saline
  T/C: 90 % of control
dose: 75.0 mg/kg/injection, schedule: Q04DX003 (ip), vehicle: saline
  T/C: 100 % of control

## CS(=O)(=O)OCC(=O)NCCNC(=O)COS(C)(=O)=O
dose: 12.5 mg/kg/injection, schedule: Q04DX003 (ip), vehicle: saline with Tween-80
  T/C: 100 % of control
dose: 25.0 mg/kg/injection, schedule: Q04DX003 (ip), vehicle: saline with Tween-80
  T/C: 108 % of control
[3]
  T/C: 120 % of control

## CC1(C)N=C(N)N=C(N)N1c1ccc(Cl)cc1
dose: 12.5 mg/kg/injection, schedule: Q01DX005 (ip), vehicle: saline
  T/C: 103 % of control
dose: 25.0 mg/kg/injection, schedule: Q01DX005 (ip), vehicle: saline
  T/C: 117 % of control
dose: 50.0 mg/kg/injection, schedule: Q01DX005 (ip), vehicle: saline
  T/C: 124 % of control

## COc1ccc(C(C)c2cc(C(C)(C)C)c(O)c(C(C)(C)C)c2)cc1 (stereo unspecified)
dose: 50.0 mg/kg/injection, schedule: Q01DX005 (ip), vehicle: distilled water + alcohol
  T/C: 103 % of control
dose: 100.0 mg/kg/injection, schedule: Q01DX005 (ip), vehicle: distilled water + alcohol
  T/C: 100 % of control
dose: 200.0 mg/kg/injection, schedule: Q01DX005 (ip), vehicle: distilled water + alcohol
  T/C: 105 % of control

## c1cc2c(ncn3nnnc23)[nH]1
[1]
  T/C: 91 % of control
[2]
  T/C: 107 % of control
dose: 25.0 mg/kg/injection, schedule: Q01DX009 (ip), vehicle: water
  T/C: 108 % of control
dose: 50.0 mg/kg/injection, schedule: Q01DX009 (ip), vehicle: water
  T/C: 109 % of control
dose: 100.0 mg/kg/injection, schedule: Q01DX009 (ip), vehicle: water
  T/C: 118 % of control

## O=C(CCCCCO)c1nc2ccccc2s1
[4]
  T/C: 100 % of control
dose: 120.0 mg/kg/injection, schedule: Q01DX005 (ip), vehicle: Klucel (hydroxypropylcellulose) (HPC)
  T/C: 102 % of control
dose: 240.0 mg/kg/injection, schedule: Q01DX005 (ip), vehicle: Klucel (hydroxypropylcellulose) (HPC)
  T/C: 94 % of control

## CC1(C)COC(c2ccc(Br)cc2)=N1
dose: 25.0 mg/kg/injection, schedule: Q01DX009 (ip), vehicle: other
  T/C: 101 % of control
dose: 50.0 mg/kg/injection, schedule: Q01DX009 (ip), vehicle: other
  T/C: 97 % of control
dose: 100.0 mg/kg/injection, schedule: Q01DX009 (ip), vehicle: other
  T/C: 102 % of control
dose: 200.0 mg/kg/injection, schedule: Q01DX009 (ip), vehicle: other
  T/C: 104 % of control

## C=Cc1cc(OC)c2c(c1)c(=O)oc1c2cc(OC)c2c(O)ccc(C3OC(C(C)O)C(O)C3O)c21 (stereo unspecified)
dose: 2.0 mg/kg/injection, schedule: Q04DX003 (ip), vehicle: DMSO
  T/C: 108 % of control
dose: 4.0 mg/kg/injection, schedule: Q04DX003 (ip), vehicle: DMSO
  T/C: 114 % of control
dose: 8.0 mg/kg/injection, schedule: Q04DX003 (ip), vehicle: DMSO
  T/C: 123 % of control
dose: 15.0 mg/kg/injection, schedule: Q01DX005 (ip), vehicle: Klucel (hydroxypropylcellulose) (HPC)
  T/C: 119 % of control
dose: 16.0 mg/kg/injection, schedule: Q04DX003 (ip), vehicle: DMSO
  T/C: 155 % of control
dose: 30.0 mg/kg/injection, schedule: Q01DX005 (ip), vehicle: Klucel (hydroxypropylcellulose) (HPC)
  T/C: 107 % of control
dose: 32.0 mg/kg/injection, schedule: Q04DX003 (ip), vehicle: DMSO
  T/C: 155 % of control
[4]
  T/C: 120 % of control
[5]
  T/C: 157 % of control
dose: 400.0 mg/kg/injection, schedule: Q01DX005 (ip), vehicle: Klucel (hydroxypropylcellulose) (HPC)
  T/C: 98 % of control

## CSC(SC)(C(=O)O)c1cc(-c2c(Cl)cccc2Cl)no1
dose: 60.0 mg/kg/injection, schedule: Q01DX005 (ip), vehicle: saline with Tween-80
  T/C: 93 % of control
dose: 120.0 mg/kg/injection, schedule: Q01DX005 (ip), vehicle: saline with Tween-80
  T/C: 102 % of control

## CC1CCN(P(=O)(N(C)C)N(C)C)CC1
dose: 50.0 mg/kg/injection, schedule: Q01DX009 (ip), vehicle: saline
  T/C: 98 % of control
dose: 100.0 mg/kg/injection, schedule: Q01DX009 (ip), vehicle: saline
  T/C: 96 % of control
dose: 200.0 mg/kg/injection, schedule: Q01DX009 (ip), vehicle: saline
  T/C: 88 % of control

## NC(=O)C(Cc1ccccc1)NC(=O)C(Cc1ccccc1)NC(=O)C(Cc1ccccc1)NC(=O)OCc1ccccc1 (stereo not drawn) (Cbz-Phe-Phe-Phe-NH2; configuration not given here)
dose: 50.0 mg/kg/injection, schedule: Q01DX005 (ip), vehicle: saline with Tween-80
  T/C: 91 % of control
dose: 100.0 mg/kg/injection, schedule: Q01DX005 (ip), vehicle: saline with Tween-80
  T/C: 97 % of control
dose: 200.0 mg/kg/injection, schedule: Q01DX005 (ip), vehicle: saline with Tween-80
  T/C: 102 % of control

## CC12CC(c3ccoc3)OC(=O)C1CCC13COC(=O)C1=CCCC32 (stereo unspecified)
dose: 0.25 mg/kg/injection, schedule: Q01DX009 (ip), vehicle: Klucel (hydroxypropylcellulose) (HPC)
  T/C: 96 % of control
dose: 0.5 mg/kg/injection, schedule: Q01DX009 (ip), vehicle: Klucel (hydroxypropylcellulose) (HPC)
  T/C: 88 % of control
dose: 1.0 mg/kg/injection, schedule: Q01DX009 (ip), vehicle: Klucel (hydroxypropylcellulose) (HPC)
  T/C: 90 % of control
dose: 2.0 mg/kg/injection, schedule: Q01DX009 (ip), vehicle: Klucel (hydroxypropylcellulose) (HPC)
  T/C: 114 % of control

## CC(N)C(=O)NC(C(=O)NC1C(O)OC(CO)C(O)C1O)C(C)C (stereo unspecified)
dose: 60.0 mg/kg/injection, schedule: Q01DX005 (ip), vehicle: saline
  T/C: 99 % of control
dose: 120.0 mg/kg/injection, schedule: Q01DX005 (ip), vehicle: saline
  T/C: 104 % of control
dose: 240.0 mg/kg/injection, schedule: Q01DX005 (ip), vehicle: saline
  T/C: 97 % of control

## CCC[CH2][Sn][Cl]
[6]
  T/C: 104 % of control
[7]
  T/C: 114 % of control
dose: 200.0 mg/kg/injection, schedule: Q01DX009 (ip), vehicle: saline with Tween-80
  T/C: 117 % of control

## CC(C)(C)c1ccc(C(=O)N2CCOC23CCCCC3)cc1
dose: 50.0 mg/kg/injection, schedule: Q01DX005 (ip), vehicle: Klucel (hydroxypropylcellulose) (HPC)
  T/C: 105 % of control
dose: 100.0 mg/kg/injection, schedule: Q01DX005 (ip), vehicle: Klucel (hydroxypropylcellulose) (HPC)
  T/C: 96 % of control
[5]
  T/C: 96 % of control

## N#CS.N=C=S.O=N[O-].[Co+3].[NH2-].[NH2-].[NH2-].[NH2-]
dose: 25.0 mg/kg/injection, schedule: Q01DX009 (ip), vehicle: saline with Tween-80
  T/C: 102 % of control
[6]
  T/C: 89 % of control
[7]
  T/C: 108 % of control
